Structures are written as SMILES.

This test relates to MV4:11 human cancer cell lines. Put plainly: Cellular viability / anti-proliferative activity, CellTiter-Glo, 5 day protocol. The class given is cell-based. To be noted: Homo sapiens, MV4-11, 120 h, MV4:11 cells; 5 day incubation; CellTiter-Glo; mean of minimum two replicates; read-out: GI50 on cellular proliferation of MV4:11 human cancer cell lines. The method, then:
Cellular Viability of Human Tumor Cell Lines
Anti proliferative activity using MLL-harboring cell lines. […] Viability assays are performed by dispensing 200 cells at 7200 cells/mL into each well of an opaque 384-well plate and adding compounds at the indicated concentrations in a final volume of 32 μL and a final concentration of DMSO of 0.3% for all samples. A certain range of compound concentrations is made through a series of 2-fold dilutions starting 30 μM at the highest, total 22 dilutions. After a set incubation period, 5 day protocol, the viability of cells in each well is assessed using the CellTiter-Glo assay (Promega), read on a 96 Microplane Luminometer (Cytation 3, BioTek). Serial dilutions of each cell type are performed in all assays to generate standard curves and the final densities of cells are determined within the dynamic range of the instrument. GI50 values are calculated based on XLfit software (IDBS, Guildford, UK) with Sigmoidal Dose-Response Model. Each compound is tested in minimum of two replicates. Data are expressed as mean.
(In general: In ATP-based viability assays light output follows the ATP content of the culture.)
As for `O=C1c2cc(Cn3ccnc3)ccc2CCN1Cc1cc(Cl)cc(Cl)c1` [Example 1, 7-((1H-Imidazol-1-yl)methyl)-2-(3,5-dichlorobenzyl)-3,4-dihydroisoquinolin-1(2H)-one], the GI50 came to 239 nM.

Regarding `Cc1nccn1Cc1ccc2c(c1)C(=O)N(Cc1cc(Cl)cc(Cl)c1)CC2` [Example 2, 2-(3,5-Dichlorobenzyl)-7-((2-methyl-1H-imidazol-1-yl)methyl)-3,4-dihydroisoquinolin-1(2H)-one], the GI50 is > 938 nM.

With `Cc1cc(CN2CCc3c(cc(Cn4ccnc4C)cc3-c3ccccc3)C2=O)ccc1Cl` [Example 5, 2-(4-Chloro-3-methylbenzyl)-7-((2-methyl-1H-imidazol-1-yl)methyl)-5-phenyl-3,4-dihydroisoquinolin-1(2H)-one], the GI50 was > 938 nM.

As for `COc1cc(CN2CCc3c(cc(Cn4ccnc4C)cc3-c3ccc(F)cc3C)C2=O)cc(OC)c1` [Example 6, 2-(3,5-Dimethoxybenzyl)-5-(4-fluoro-2-methylphenyl)-7-((2-methyl-1H-imidazol-1-yl)methyl)-3,4-dihydroisoquinolin-1(2H)-one], the GI50 was determined as 301 nM.

As to `Cc1cc(CN2CCc3c(cc(Cn4ccnc4C)cc3-c3cccnc3C)C2=O)ccc1Cl` [Example 7, 2-(4-Chloro-3-methylbenzyl)-7-((2-methyl-1H-imidazol-1-yl)methyl)-5-(2-methylpyridin-3-yl)-3,4-dihydroisoquinolin-1(2H)-one], the GI50 is 572 nM.

Consider `COc1ccnc(CN2CCc3c(cc(Cn4ccnc4C)cc3-c3cn(C)nc3C(F)(F)F)C2=O)c1` [Example 8, 2-((4-Methoxypyridin-2-yl)methyl)-7-((2-methyl-1H-imidazol-1-yl)methyl)-5-(1-methyl-3-(trifluoromethyl)-1H-pyrazol-4-yl)-3,4-dihydroisoquinolin-1(2H)-one], for which the GI50 was < 50 nM.

For the compound `COc1ccnc(CN2CCc3c(cc(Cn4ccnc4C4CC4)cc3-c3cn(C)nc3C)C2=O)c1` [Example 9, 7-((2-Cyclopropyl-1H-imidazol-1-yl)methyl)-5-(1,3-dimethyl-1H-pyrazol-4-yl)-2-((4-methoxypyridin-2-yl)methyl)-3,4-dihydroisoquinolin-1(2H)-one], the GI50 worked out at 553 nM.

As for `COc1cc(CN2CCc3c(cc(Cn4ccnc4C)cc3-c3cn(C)nc3C(F)(F)F)C2=O)cc(OC)c1` [Example 10, 2-(3,5-Dimethoxybenzyl)-7-((2-methyl-1H-imidazol-1-yl)methyl)-5-(1-methyl-3-(trifluoromethyl)-1H-pyrazol-4-yl)-3,4-dihydroisoquinolin-1(2H)-one], the GI50 is < 50 nM.

As to `COc1ccnc(CN2CCc3c(cc(Cn4ccnc4C4CC4)cc3-c3cn(C)nc3C(F)(F)F)C2=O)c1` [Example 11, 7-((2-Cyclopropyl-1H-imidazol-1-yl)methyl)-2-((4-methoxypyridin-2-yl)methyl)-5-(1-methyl-3-(trifluoromethyl)-1H-pyrazol-4-yl)-3,4-dihydroisoquinolin-1(2H)-one], the GI50 turned out to be 54 nM.

Turning to `Cc1ccnc([C@H](C2CC2)N2CCc3c(cc(Cn4ccnc4C)cc3-c3ccc(F)cc3C)C2=O)c1` [Example 12, (S)-2-(Cyclopropyl(4-methylpyridin-2-yl)methyl)-5-(4-fluoro-2-methylphenyl)-7-((2-methyl-1H-imidazol-1-yl)methyl)-3,4-dihydroisoquinolin-1(2H)-one], the GI50 is 69 nM.

Consider `CCc1nccn1Cc1cc2c(c(-c3ccc(F)cc3C)c1)CCN([C@H](c1cc(C)ccn1)C1CC1)C2=O` [Example 13, (S)-2-(Cyclopropyl(4-methylpyridin-2-yl)methyl)-7-((2-ethyl-1H-imidazol-1-yl)methyl)-5-(4-fluoro-2-methylphenyl)-3,4-dihydroisoquinolin-1(2H)-one], for which the GI50 is 105 nM.

Regarding `CCn1cc(-c2cc(Cn3ccnc3C3CC3)cc3c2CCN(Cc2cc(C)nn2C)C3=O)c(C(F)(F)F)n1` [Example 14, 7-((2-Cyclopropyl-1H-imidazol-1-yl)methyl)-2-((1,3-dimethyl-1H-pyrazol-5-yl)methyl)-5-(1-ethyl-3-(trifluoromethyl)-1H-pyrazol-4-yl)-3,4-dihydroisoquinolin-1(2H)-one], the GI50 was > 938 nM.

On to `CCn1cc(CN2CCc3c(cc(Cn4ccnc4C)cc3-c3cn(CC)nc3C(F)(F)F)C2=O)nn1` [Example 15, 2-((1-Ethyl-1H-1,2,3-triazol-4-yl)methyl)-5-(1-ethyl-3-(trifluoromethyl)-1H-pyrazol-4-yl)-7-((2-methyl-1H-imidazol-1-yl)methyl)-3,4-dihydroisoquinolin-1(2H)-one], for which the GI50 was 76 nM.

On to `COc1cc(CN2CCc3c(cc(Cn4ccnc4C4CC4)cc3-c3ccc(F)cc3C)C2=O)cc(OC)c1` [Example 16, 7-((2-Cyclopropyl-1H-imidazol-1-yl)methyl)-2-(3,5-dimethoxybenzyl)-5-(4-fluoro-2-methylphenyl)-3,4-dihydroisoquinolin-1(2H)-one], for which the GI50 is > 938 nM.

Regarding `COc1cc(CN2CCc3c(cc(Cn4cc(C)nc4C)cc3-c3cn(C)nc3C(F)(F)F)C2=O)cc(OC)c1` [Example 17, 2-(3,5-Dimethoxybenzyl)-7-((2,4-dimethyl-1H-imidazol-1-yl)methyl)-5-(1-methyl-3-(trifluoromethyl)-1H-pyrazol-4-yl)-3,4-dihydroisoquinolin-1(2H)-one], the GI50 is 360 nM.

Take `COc1cc(CN2CCc3c(cc(Cn4cc(C)nc4C)cc3-c3ccc(F)cc3C)C2=O)cc(OC)c1` [Example 18, 2-(3,5-Dimethoxybenzyl)-7-((2,4-dimethyl-1H-imidazol-1-yl)methyl)-5-(4-fluoro-2-methylphenyl)-3,4-dihydroisoquinolin-1(2H)-one]: the GI50 is > 938 nM.

Turning to `COc1cc(CN2CCc3c(OCC4CC4)cc(Cn4ccnc4C4CC4)cc3C2=O)cc(OC)c1` [Example 19, 7-((2-Cyclopropyl-1H-imidazol-1-yl)methyl)-5-(cyclopropylmethoxy)-2-(3,5-dimethoxybenzyl)-3,4-dihydroisoquinolin-1(2H)-one], the GI50 is > 938 nM.

In the case of `CCn1cc(-c2cc(Cn3ccnc3C)cc3c2CCN(Cc2cn(C)nc2C)C3=O)c(C(F)(F)F)n1` [Example 20, 2-((1,3-Dimethyl-1H-pyrazol-4-yl)methyl)-5-(1-ethyl-3-(trifluoromethyl)-1H-pyrazol-4-yl)-7-((2-methyl-1H-imidazol-1-yl)methyl)-3,4-dihydroisoquinolin-1(2H)-one], the GI50 stood at 508 nM.

Take `CCc1ccnc(CN2CCc3c(cc(Cn4ccnc4C)cc3-c3cn(CC)nc3C(F)(F)F)C2=O)c1` [Example 21, 5-(1-Ethyl-3-(trifluoromethyl)-1H-pyrazol-4-yl)-2-((4-ethylpyridin-2-yl)methyl)-7-((2-methyl-1H-imidazol-1-yl)methyl)-3,4-dihydroisoquinolin-1(2H)-one]: the GI50 was < 50 nM.

Turning to `CCc1ccnc(CN2CCc3c(cc(Cn4cc(C)nc4C)cc3-c3cn(CC)nc3C(F)(F)F)C2=O)c1` [Example 22, 7-((2,4-Dimethyl-1H-imidazol-1-yl)methyl)-5-(1-ethyl-3-(trifluoromethyl)-1H-pyrazol-4-yl)-2-((4-ethylpyridin-2-yl)methyl)-3,4-dihydroisoquinolin-1(2H)-one], the GI50 was 145 nM.

Turning to `Cc1cc([C@H](C)N2CCc3c(OCC4CC4)cc(Cn4ccnc4C4CC4)cc3C2=O)ccc1F` [Example 23, (S)-7-((2-Cyclopropyl-1H-imidazol-1-yl)methyl)-5-(cyclopropylmethoxy)-2-(1-(4-fluoro-3-methylphenyl)ethyl)-3,4-dihydroisoquinolin-1(2H)-one], the GI50 is > 938 nM.

Consider `Cc1cc([C@H](C)N2CCc3c(cc(Cn4ccnc4C)cc3-c3cn(C)nc3C(F)(F)F)C2=O)ccc1F` [Example 24, (S)-2-(1-(4-Fluoro-3-methylphenyl)ethyl)-7-((2-methyl-1H-imidazol-1-yl)methyl)-5-(1-methyl-3-(trifluoromethyl)-1H-pyrazol-4-yl)-3,4-dihydroisoquinolin-1(2H)-one], for which the GI50 is < 50 nM.

Regarding `COc1cc(CN2CCc3cc(F)c(Cn4ccn(C)c4=N)cc3C2=O)cc(OC)c1` [Example 25, 2-(3,5-Dimethoxybenzyl)-6-fluoro-7-((2-imino-3-methyl-2,3-dihydro-1H-imidazol-1-yl)methyl)-3,4-dihydroisoquinolin-1(2H)-one], the GI50 was > 938 nM.

As for `Cn1ccn(Cc2cc3c(cc2F)CCN(Cc2ccc(Cl)c(Cl)c2)C3=O)c1=N` [Example 26, 2-(3,4-Dichlorobenzyl)-6-fluoro-7-((2-imino-3-methyl-2,3-dihydro-1H-imidazol-1-yl)methyl)-3,4-dihydroisoquinolin-1(2H)-one], the GI50 was > 938 nM.

On to `Cc1cc(CN2CCc3c(cc(Cn4ccn(C)c4=N)cc3-c3cccnc3C)C2=O)ccc1Cl` [Example 27, 2-(4-Chloro-3-methylbenzyl)-7-((2-imino-3-methyl-2,3-dihydro-1H-imidazol-1-yl)methyl)-5-(2-methylpyridin-3-yl)-3,4-dihydroisoquinolin-1(2H)-one], for which the GI50 is > 938 nM.

In the case of `Cc1cc(CN2CCc3c(cc(Cn4ccn(C)c4=N)cc3-c3ccc(F)cc3C)C2=O)ccc1Cl` [Example 28, 2-(4-Chloro-3-methylbenzyl)-5-(4-fluoro-2-methylphenyl)-7-((2-imino-3-methyl-2,3-dihydro-1H-imidazol-1-yl)methyl)-3,4-dihydroisoquinolin-1(2H)-one], the GI50 was > 938 nM.

These data come from patent US11999716B2, “WDR5 inhibitors and modulators” (priority 2018, dated 2024).
